Experimental data reported in publication PMC7697635, “Dual RNase and β-lactamase Activity of a Single Enzyme Encoded in Archaea” (Life, 2020).

How the values were obtained:
[1] = test system: T1, archaeal class C-like β-lactamase; assay: nitrocefin hydrolysis, absorbance at […] nm, Michaelis-Menten fit; type: biochemical, Methanosarcina sp.; settings: room temperature; 4 µM enzyme; 0.05-1.5 mM nitrocefin
T1 construct: gene class C-like beta-lactamase

[2] = biological target: T2, MetbaB (Methanosarcina β-lactamase class B) (Methanosarcina barkeri, UniProt A0A0E3SJT9); assay: inhibition of nitrocefin hydrolysis, absorbance at […] nm; type: biochemical; settings: substrate nitrocefin; 1 µg/mL sulbactam; 30 min
T2 construct: gene MSBR3_0040
T2 sequence (A0A0E3SJT9 1-213 limits assumed): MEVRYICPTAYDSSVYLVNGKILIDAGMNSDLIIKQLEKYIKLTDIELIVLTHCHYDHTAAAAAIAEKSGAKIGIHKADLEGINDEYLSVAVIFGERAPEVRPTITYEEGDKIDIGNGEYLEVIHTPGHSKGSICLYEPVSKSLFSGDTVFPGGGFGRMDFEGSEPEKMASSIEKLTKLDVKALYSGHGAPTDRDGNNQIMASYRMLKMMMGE

Work on O=C(Cc1cccs1)N[C@@H]1C(=O)N2C(C(=O)O)=C(/C=C/c3ccc([N+](=O)[O-])cc3[N+](=O)[O-])CS[C@H]12 [nitrocefin] yielded a Km [1] of 584 µM.

For CC1(C)[C@H](C(=O)O)N2C(=O)C[C@H]2S1(=O)=O [sulbactam], the “inhibition at 1 μg/mL” value [2] was “in the presence of sulbactam, no degradation of the nitrocefin β-lactam could be detected”.
